# Molecular target: 72 kDa type IV collagenase (Homo sapiens, UniProt P08253)
# Experiment: Inhibition Assay
# Description: Inhibition assay using matrix metalloproteinase (MMP-2).
# Chain of 72 kDa type IV collagenase (P08253 whole entry): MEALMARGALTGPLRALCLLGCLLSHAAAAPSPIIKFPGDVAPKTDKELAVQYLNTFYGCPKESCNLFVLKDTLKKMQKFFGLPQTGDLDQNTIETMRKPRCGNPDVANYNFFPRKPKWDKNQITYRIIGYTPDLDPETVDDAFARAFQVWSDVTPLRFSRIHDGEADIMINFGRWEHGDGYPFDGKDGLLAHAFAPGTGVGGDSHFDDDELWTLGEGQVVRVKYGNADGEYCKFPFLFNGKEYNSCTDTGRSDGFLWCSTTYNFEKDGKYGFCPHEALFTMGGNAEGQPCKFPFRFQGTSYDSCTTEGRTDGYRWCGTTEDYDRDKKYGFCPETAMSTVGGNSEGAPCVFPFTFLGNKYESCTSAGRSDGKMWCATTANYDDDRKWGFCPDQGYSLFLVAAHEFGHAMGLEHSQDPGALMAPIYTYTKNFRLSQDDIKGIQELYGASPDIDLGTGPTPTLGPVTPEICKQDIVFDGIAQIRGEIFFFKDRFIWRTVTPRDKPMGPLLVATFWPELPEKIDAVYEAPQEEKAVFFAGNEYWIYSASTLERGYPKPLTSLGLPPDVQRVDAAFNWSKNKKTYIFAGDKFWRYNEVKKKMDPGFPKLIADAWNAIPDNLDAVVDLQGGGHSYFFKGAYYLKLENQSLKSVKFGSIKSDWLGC
row,SMILES,Ki [nM]
1,"[O-][S+](CC1CS1)c1ccc(Oc2ccccc2)cc1 (centres undefined) [Sulfoxide, 4]",2100
2,"O=S(=O)(/C=C/CS)c1ccc(Oc2ccccc2)cc1 [Vinylsulfone, 7]",0.53
3,"CC(C)(C1CS1)S(=O)(=O)c1ccc(Oc2ccccc2)cc1 (stereo not drawn) [Alpha, alpha-dimethyl derivative, 5]",> 40000
4,"CC1(C)SC1CS(=O)(=O)c1ccc(Oc2ccccc2)cc1 (centres undefined) [Gama, gama-dimethyl derivative, 6]",1400
